Test results reported in US12497378B2, “Tetrahydronaphthalene compounds, pharmaceutical compositions, and uses thereof” (GUANGZHOU HENOVCOM BIOSCIENCE CO., LTD., priority 2020, dated 2025).

Test: Pharmacokinetics experiment in mouse after intramuscular injection of compound suspensions
Type: in vivo
Conditions: 9 mg/kg (calculated according to Rotigotine), SD mice, plasma
Method: The compounds of the present disclosure were precisely weighed in a proper amount and placed in a 20 ml vial, a blank matrix solution and a zirconia grinding ball were added to grind by vortex. After grinding, the suspension sample was transferred, and the blank matrix solution was used for diluting the suspension sample to final volume, and the suspension sample was packaged into 7 ml vials to prepare about a 20 mg/ml suspension. After the quantitative analysis was determined, the suspension was used for the pharmacokinetics experiment in the mouse.
Suspensions of Embodiments 15, 24, 27, 32 and 54 were prepared according to the method of Embodiment 82 and were taken at a dose of 9 mg/kg(calculated according to Rotigotine), and each of the above-mentioned compound suspensions was intramuscularly administrated for three SD mice, and whole blood samples were taken in 1 h, 4 h, 8 h, 24 h, 48 h, 72 h, 96 h, 120 h, 168 h, 216, 264 h, 312 h, and 360 h after administration, with 0.3 ml/time point. K2EDT/heparin sodium were added to the whole blood samples for anticoagulation, and a BNPP stabilizer was further added, and then each whole blood sample was centrifuged to obtain plasma in 30 min.

blood concentrations of the active compounds (1 h after intramuscular injection of compound suspension): 0.288 ng/mL
blood concentrations of the active compounds (4 h after intramuscular injection of compound suspension): 1.26 ng/mL
blood concentrations of the active compounds (8 h after intramuscular injection of compound suspension): 2.53 ng/mL
blood concentrations of the active compounds (24 h after intramuscular injection of compound suspension): 2.31 ng/mL
blood concentrations of the active compounds (48 h after intramuscular injection of compound suspension): 2.02 ng/mL
blood concentrations of the active compounds (72 h after intramuscular injection of compound suspension): 1.51 ng/mL
blood concentrations of the active compounds (96 h after intramuscular injection of compound suspension): 1.57 ng/mL
blood concentrations of the active compounds (120 h after intramuscular injection of compound suspension): 1.86 ng/mL
blood concentrations of the active compounds (168 h after intramuscular injection of compound suspension): 2.29 ng/mL
blood concentrations of the active compounds (216 h after intramuscular injection of compound suspension): 2.76 ng/mL
blood concentrations of the active compounds (264 h after intramuscular injection of compound suspension): 1.83 ng/mL
blood concentrations of the active compounds (312 h after intramuscular injection of compound suspension): 1.33 ng/mL
blood concentrations of the active compounds (360 h after intramuscular injection of compound suspension): 0.906 ng/mL
Substance: (S)-6-(propyl(2-(thiophen-2-yl)ethyl)amino)-5,6,7,8-tetrahydronaphthalen-1-yl 3-(16-(ethylamino)-16-oxohexadecanamido) propanoate [Embodiment 54]
